# Columns and labels:
# [1] = test system: tubers (cv Alturas); test: Tuber firmness measured with TA-XT-2 texture analyzer; type: in vivo, potato; conditions: 115 ppm; for Tuber firmness (N) Average / Tuber firmness (N) Rep 1 / Tuber firmness (N) Rep 2 / Tuber firmness (N) Rep 3 / Tuber firmness (N) Rep 4: stored at 8° C.; for Tuber firmness (N) Rep 1 / Tuber firmness (N) Rep 2 / Tuber firmness (N) Rep 3 / Tuber firmness (N) Rep 4: mean of 6 tubers
# Description: The source of tubers for this study was Telford Farms in Paul, Id. The storage unit temperature set point was 48.5° F. (9° C.). The tuber pulp temperatures ranged from 49 to 53.6° F. (9 to 12° C.) depending upon their location in the pile. Untreated tubers (cv Alturas) were selected from storage on Jul. 2, 2013 (prior to SmartBlock® application) to serve as untreated controls. About 200 lbs (91 kg) of these were distributed into 4 coolers with cold packs and transported to the Fed Ex office in Twin Falls, Id. at 1:45 pm where they remained in the air conditioned office until 6:23 pm when they left the facility. Untreated tubers to arrived in Pullman at 11:45 am on July 3.
# SmartBlock® was applied at a rate of 4.2 fluid oz ton^−1 (136 mL MT^−1) to tubers remaining in the Telford Farms storage on July 2. Ventilation was suspended for an estimated 12 to 18 hrs. post treatment. A shipment of the treated tubers was packed as described above and delivered to Fed Ex in Twin Falls for shipment on July 3. The shipment arrived in Pullman on July 5 at 11:30 am.
# Tubers were sorted into weight categories immediately upon arrival in Pullman, working at room temperature (˜25° C.) and in dim light (0.16-1.34 μE sec^−1 m^−2). Two experimental groups were created from the untreated (control) tubers; those with one or more sprouts ≧0.5 cm and those with no significant (>2 mm) sprouts. Sorting of tubers and their assignment to treatment groups for the various experiments was accomplished within 1.5 hr. and subsequently all tubers were placed in dark, walk-in storage at 8° C. with 85 to 90% RH. Humidity was maintained through the use of a household room humidifier, water on the concrete floor, and damp burlap placed on the empty shelves.
# Tubers for firmness measurements were sorted by treatment and blocked for size. Each treatment group (containing at least 24 tubers) was stored in a plastic tote in the walk-in cold room at 8° C. Damp burlap was placed atop the tote so as not to contact the tubers directly. Burlap was re-wetted every two days. At 6, 13, 20, and 27 days after treatment (DAT), six tubers from each rep of each treatment (3-decen-2-one-treated and non-treated not sprouted) were selected and gently rinsed under cold running water to remove surface soil. The tubers were placed in plastic tubs and covered with damp paper towels for transport to the testing facility.
# A TA-XT-2 texture analyzer (Stable Microsystems) was used to test tubers for firmness. A section of peel was removed from the midsection on opposite sides of the tuber. An 8-mm probe was lowered into the tuber tissue within this peeled area to a distance of 5 mm at a speed of 1 mm s^−1. Firmness was recorded as the N (m kg s−1) required to achieve the specified penetration. The two readings per tuber were averaged. Analysis of variance was performed on the data set.
# [2] = test system: dry rot (Fusarium sambucinum); test: Disease defects in commercial storage in Canada (Storage Bin 3); type: in vivo
# Description: (§1) One group of sprouted, diseased tubers (Storage Bin 3) were treated with 3-decen-2-one (as SmartBlock®) at the rate of 115 ppm using a hot fogging method. Another group of tubers was left untreated as a control.
# [3] = test system: Potato variety FL 2053; test: Sprout control in commercial storage in Canada (Storage Bin 3); type: in vivo; conditions: 115 ppm hot fogging, sprouted diseased tubers, FIG. 4
# Description: as §1
# [4] = Dec. 10, 2013, final grading after 115 ppm thermal fog
smiles,measurement,setting,value
CCCCCCC=CC(C)=O [3-decen-2-one],% Increase (tuber firmness vs untreated),[1]; 6 days after treatment,4.09%
same,Tuber firmness (N) Average,[1]; 6 days after treatment,75.38 N
same,Tuber firmness (N) Rep 1,[1]; 6 days after treatment,67.84 N
same,Tuber firmness (N) Rep 2,[1]; 6 days after treatment,79.18 N
same,Tuber firmness (N) Rep 3,[1]; 6 days after treatment,75.64 N
same,Tuber firmness (N) Rep 4,[1]; 6 days after treatment,78.85 N
same,% Increase (tuber firmness vs untreated),[1]; 13 days after treatment,2.80%
same,Tuber firmness (N) Average,[1]; 13 days after treatment,73.45 N
same,Tuber firmness (N) Rep 1,[1]; 13 days after treatment,73.22 N
same,Tuber firmness (N) Rep 2,[1]; 13 days after treatment,67.34 N
same,Tuber firmness (N) Rep 3,[1]; 13 days after treatment,73.98 N
same,Tuber firmness (N) Rep 4,[1]; 13 days after treatment,79.26 N
same,% Increase (tuber firmness vs untreated),[1]; 20 days after treatment,3.28%
same,Tuber firmness (N) Average,[1]; 20 days after treatment,74.90 N
same,Tuber firmness (N) Rep 1,[1]; 20 days after treatment,74.51 N
same,Tuber firmness (N) Rep 2,[1]; 20 days after treatment,74.63 N
same,Tuber firmness (N) Rep 3,[1]; 20 days after treatment,72.81 N
same,Tuber firmness (N) Rep 4,[1]; 20 days after treatment,77.64 N
same,symptoms of dry rot compared to untreated controls,"[2]; 115 ppm hot fogging, sprouted diseased tubers, FIG. 4",decreased or eliminated symptoms of dry rot
same,% Total Defects,"[2]; Dec. 10, 2013, bin unloaded after 115 ppm thermal fog on Nov. 13, 2013 (14.30 before treatment), variety FL 2053",4.23%
same,moistness of tubers,[2]; [4],tubers were not moist and mold
same,mold development,[2]; [4],development had been arrested.
same,Change (of % total defects),"[2]; Dec. 10, 2013 versus Nov. 13, 2013 before treatment, 115 ppm thermal fog",-70.4
same,sprouting compared to untreated controls,[3],reduced/prevented sprouting
